Source: US20260102501A1, “ANTI-CANCER NUCLEAR HORMONE RECEPTOR-TARGETING COMPOUNDS” (Nuvation Bio Inc., priority 2022, published 2026)
Substitutions are numbered along the chain they refer to. Where a name gives a salt, the structure may show the parent alone. Read-outs that look alike come from different tables or passages of the source.

Key:
[1] = target: T1, AR (cytosol from LnCaP cells) (Homo sapiens, UniProt P10275, T878A); test: AR binding assay (3H-R1881 displacement)
T1 sequence (P10275 1-920 T878A): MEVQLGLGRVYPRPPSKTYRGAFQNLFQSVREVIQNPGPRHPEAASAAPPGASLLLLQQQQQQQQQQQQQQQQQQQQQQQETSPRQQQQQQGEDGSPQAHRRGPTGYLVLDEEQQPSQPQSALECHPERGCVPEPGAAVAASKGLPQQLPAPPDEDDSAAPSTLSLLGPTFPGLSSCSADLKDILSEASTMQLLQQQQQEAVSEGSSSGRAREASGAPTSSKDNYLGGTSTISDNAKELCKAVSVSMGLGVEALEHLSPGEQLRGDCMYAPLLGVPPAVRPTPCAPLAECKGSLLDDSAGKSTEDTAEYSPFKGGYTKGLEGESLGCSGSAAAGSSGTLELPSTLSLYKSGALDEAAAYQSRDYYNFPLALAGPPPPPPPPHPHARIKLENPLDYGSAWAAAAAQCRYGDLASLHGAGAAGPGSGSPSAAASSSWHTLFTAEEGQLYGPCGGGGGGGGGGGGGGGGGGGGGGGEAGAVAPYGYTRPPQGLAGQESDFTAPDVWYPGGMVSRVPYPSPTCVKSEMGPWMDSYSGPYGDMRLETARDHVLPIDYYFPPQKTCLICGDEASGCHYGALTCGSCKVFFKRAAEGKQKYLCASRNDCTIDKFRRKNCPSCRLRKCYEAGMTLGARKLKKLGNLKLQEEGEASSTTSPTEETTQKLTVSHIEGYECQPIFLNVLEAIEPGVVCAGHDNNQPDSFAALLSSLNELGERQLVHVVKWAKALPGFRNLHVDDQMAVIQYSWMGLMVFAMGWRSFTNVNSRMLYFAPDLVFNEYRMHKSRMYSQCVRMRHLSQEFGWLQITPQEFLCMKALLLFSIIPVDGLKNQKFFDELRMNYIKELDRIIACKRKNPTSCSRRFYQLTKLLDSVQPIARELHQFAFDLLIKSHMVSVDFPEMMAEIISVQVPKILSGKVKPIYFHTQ
Method: The plate was then centrifuged at 3000 rpm for 30 minutes at 4° C.

[2] = target: T2, full-length androgen receptor (HEK293 cells stably expressing) (Homo sapiens, UniProt P10275); test: AR antagonism assay (luciferase reporter)
T2 sequence (P10275 1-920): T1 sequence (P10275 1-920 T878A) with A878T

22Rv1 cells = test: Cell viability assay (CellTiterGlo); details: Homo sapiens, 22Rv1, 144 h, read-out: 22RV1 (IC50, nM)
LNCap cells = test: Cell viability assay (CellTiterGlo); type: cell-based; details: Homo sapiens, 144 h
IEC6 cells = test: Cell viability assay (CellTiterGlo); details: Rattus norvegicus, IEC-6, 144 h, read-out: IEC-6 (IC50, nM)
[3] = target: T3, Progesterone PR-B receptors from human breast carcinoma T47D cells (Homo sapiens, UniProt P06401); test: PR binding assay ([3H] Progesterone displacement)
T3 sequence (P06401 1-933): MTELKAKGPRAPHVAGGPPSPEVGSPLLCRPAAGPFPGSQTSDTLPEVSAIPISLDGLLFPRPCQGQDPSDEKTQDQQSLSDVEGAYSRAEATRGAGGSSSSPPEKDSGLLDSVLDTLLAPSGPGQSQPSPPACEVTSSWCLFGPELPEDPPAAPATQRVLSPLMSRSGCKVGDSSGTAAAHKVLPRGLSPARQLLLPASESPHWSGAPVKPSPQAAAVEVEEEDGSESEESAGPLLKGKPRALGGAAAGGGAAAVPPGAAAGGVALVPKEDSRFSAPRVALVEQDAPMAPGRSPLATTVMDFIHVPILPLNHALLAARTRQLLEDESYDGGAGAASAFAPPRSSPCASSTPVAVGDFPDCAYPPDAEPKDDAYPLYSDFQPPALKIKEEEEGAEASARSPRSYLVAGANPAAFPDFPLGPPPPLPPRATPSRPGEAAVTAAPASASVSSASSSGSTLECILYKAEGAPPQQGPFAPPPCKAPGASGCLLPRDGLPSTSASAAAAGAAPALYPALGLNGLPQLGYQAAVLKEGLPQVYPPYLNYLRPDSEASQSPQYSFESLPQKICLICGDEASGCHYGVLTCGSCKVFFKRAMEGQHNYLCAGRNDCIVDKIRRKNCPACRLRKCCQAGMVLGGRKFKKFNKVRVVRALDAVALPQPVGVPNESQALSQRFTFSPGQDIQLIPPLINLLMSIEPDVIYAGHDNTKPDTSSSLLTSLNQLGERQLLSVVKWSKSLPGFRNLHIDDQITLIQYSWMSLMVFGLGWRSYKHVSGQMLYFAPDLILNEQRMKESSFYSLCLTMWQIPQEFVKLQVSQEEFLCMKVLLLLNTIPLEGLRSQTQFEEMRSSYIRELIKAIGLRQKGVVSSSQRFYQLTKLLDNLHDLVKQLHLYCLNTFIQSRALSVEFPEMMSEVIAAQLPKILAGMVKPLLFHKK

[4] = target: T4, ligand binding domain of the glucocorticoid receptor (HEK293 cells stably expressing) (Homo sapiens, UniProt P04150); test: GR antagonism assay (luciferase reporter)
T4 sequence (P04150 524-758 limits assumed): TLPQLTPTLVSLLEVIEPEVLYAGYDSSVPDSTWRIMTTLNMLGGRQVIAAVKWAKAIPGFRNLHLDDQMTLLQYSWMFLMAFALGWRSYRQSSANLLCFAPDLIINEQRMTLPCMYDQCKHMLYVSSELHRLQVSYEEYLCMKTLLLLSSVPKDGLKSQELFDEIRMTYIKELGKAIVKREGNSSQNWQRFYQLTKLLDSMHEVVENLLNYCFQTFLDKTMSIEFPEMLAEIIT
Method: HEK293 cells stably expressing the ligand binding domain of the glucocorticoid receptor were seeded at a density of 40000 cells/well in the assay plate. The assay plate was then incubated at 37° C., 5% CO2 for 30 minutes. Dexamethasone was added to the assay plate at 1.5 nM final concentration and the assay plate incubated at 37° C., 5% CO2 for 20 h. After the incubation period, Dual-glo luciferase reagent was added to the assay plate and mixed at room temperature for 20 minutes on an orbital shaker, before reading out on the En Vision plate reader. 50 μL of Stop & Glo reagent was added to assay plate, mixed at room temperature for 20 minutes, and read on the Envision plate reader.

T47D cells = test: Cell viability assay (CellTiterGlo); type: cell-based; details: Homo sapiens, 144 h
[5] = 6 days incubation, CellTiterGlo, read-out: LNCap (IC50)

SMILES	IC50 [1] [µM]	IC50 [2] [µM]	IC50 (22Rv1 cells) [nM]	IC50 (LNCap cells; [5]) [nM]	IC50 (IEC6 cells) [nM]	IC50 [3] [µM]	IC50 [4] [µM]	IC50 (T47D cells; 6 days incubation, CellTiterGlo, read-out: T47D (IC50)) [nM]	IC50 (T47D cells; read-out: T47D (IC50)) [nM]	IC50 (LNCap cells; read-out: LNCap (IC50)) [nM]	IC50 (T47D cells; read-out: T47D (IC50, nM)) [nM]	IC50 (LNCap cells; read-out: LNCap (IC50, nM)) [nM]
CC[C@@]1(O)C(=O)OCc2c1cc1n(c2=O)Cc2c-1nc1cc(F)c(C)c3c1c2[C@@H](NC(=O)COC(=O)N1CCN(CCCCCCN(C)c2ccc([C@H]4C[C@@]5(C)[C@@H](CC[C@]5(OC(C)=O)C(C)=O)[C@@H]5CCC6=CC(=O)CCC6=C54)cc2)CC1)CC3 [Compound 42, 2-(((1S,9S)-9-ethyl-5-fluoro-9-hydroxy-4-methyl-10,13-dioxo-2,3,9,10,13,15-hexahydro-1H,12H-benzo[de]pyrano[3′,4′:6,7]indolizino[1,2-b]quinolin-1-yl)amino)-2-oxoethyl 4-(6-((4-((8S,11R,13S,14S,17R)-17-acetoxy-17-acetyl-13-methyl-3-oxo-2,3,6,7,8,11,12,13,14,15,16,17-dodecahydro-1H-cyclopenta[a]phenanthren-11-yl)phenyl)(methyl)amino)hexyl)piperazine-1-carboxylate]	0.01 to 0.1	0.101 to 1	101 to 1000	101 to 1000	> 1000	< 0.01	0.01 to 0.1					
CC[C@@]1(O)C(=O)OCc2c1cc1n(c2=O)Cc2cc3c(CN4CCN(C(=O)OCCCCN(C)c5ccc([C@H]6C[C@@]7(C)[C@@H](CC[C@]7(OC(C)=O)C(C)=O)[C@@H]7CCC8=CC(=O)CCC8=C76)cc5)CC4)c(O)ccc3nc2-1 [Compound 41, 4-((4-((8S,11R,13S,14S,17R)-17-acetoxy-17-acetyl-13-methyl-3-oxo-2,3,6,7,8,11,12,13,14,15,16,17-dodecahydro-1H-cyclopenta[a]phenanthren-11-yl)phenyl)(methyl)amino)butyl 4-(((S)-4-ethyl-4,9-dihydroxy-3,14-dioxo-3,4,12,14-tetrahydro-1H-pyrano[3′,4′:6,7]indolizino[1,2-b]quinolin-10-yl)methyl)piperazine-1-carboxylate]	0.01 to 0.1	0.101 to 1		10 to 100	101 to 1000	< 0.01	< 0.01	10 to 100				
CC[C@@]1(OC(=O)N2CCN(CCCCCCN(C)c3ccc([C@H]4C[C@@]5(C)[C@@H](CC[C@]5(OC(C)=O)C(C)=O)[C@@H]5CCC6=CC(=O)CCC6=C54)cc3)CC2)C(=O)OCc2c1cc1n(c2=O)Cc2cc3cc(OC)ccc3nc2-1 [Compound 24, (S)-4-Ethyl-9-methoxy-3,14-dioxo-3,4,12,14-tetrahydro-1H-pyrano[3′,4′:6,7]indolizino[1,2-b]quinolin-4-yl 4-(6-((4-((8S,11R,13S,14S,17R)-17-acetoxy-17-acetyl-13-methyl-3-oxo-2,3,6,7,8,11,12,13,14,15,16,17-dodecahydro-1H-cyclopenta[a]phenanthren-11-yl)phenyl)(methyl)amino)hexyl)piperazine-1-carboxylate Formate]						< 0.01			101 to 1000	101 to 1000		
CC[C@@]1(O)C(=O)OCc2c1cc1n(c2=O)Cc2cc3c(CN(C)C)c(OC(=O)N4C[C@H](C)N(C(=O)[C@H](CCCNC(N)=O)NC(=O)[C@@H](NCCCCCCN(C)c5ccc([C@H]6C[C@@]7(C)[C@@H](CC[C@]7(OC(C)=O)C(C)=O)[C@@H]7CCC8=CC(=O)CCC8=C76)cc5)C(C)C)C[C@H]4C)ccc3nc2-1 [Compound 35]	0.01 to 0.1	> 1			> 1000	< 0.01	0.01 to 0.1				101 to 1000	> 1000
CC[C@@]1(O)C(=O)OCc2c1cc1n(c2=O)Cc2cc3c(CN4CCN(CCCCCCC5CCN(c6ccc(C(=O)N[C@H]7CC[C@H](N(C)c8ccc(C#N)c(Cl)c8)CC7)nn6)CC5)CC4)c(O)ccc3nc2-1 [Compound 56, N-((1r,4r)-4-((3-chloro-4-cyanophenyl)(methyl)amino)cyclohexyl)-6-(4-(6-(4-(((S)-4-ethyl-4,9-dihydroxy-3,14-dioxo-3,4,12,14-tetrahydro-1H-pyrano[3′,4′:6,7]indolizino[1,2-b]quinolin-10-yl)methyl)piperazin-1-yl)hexyl)piperidin-1-yl)pyridazine-3-carboxamide]	0.101 to 1	0.101 to 1	10 to 100	10 to 100	101 to 1000	0.01 to 0.1						
